{"source": "patent US5856358A", "about": "“Mono- and disulfo-substituted anthraquinones and their use for the treatment of bone matrix disorders” (priority 1995, dated 1999)", "key": {"[1]": {"test_system": "Chinese hamster ovary (CHO) cells", "experiment": "Test of induction of chromosomal aberrations", "format": "cell-based", "settings": "for Aberrations complex (C) / Aberrations simple (S) / Aberrations S + C: 100 metaphases", "protocol": "The clastogenetic effect of rhein and of 2,6-anthraquinonedisulfonic acid, was evaluated using the test of the induction of chromosomal aberrations in cell cultures of chinese hamster ovary (CHO). In this test, the cell line was treated with the tested substances and with suitable controls, in the presence of a metabolic activation system for four hours. After that, the cell in growth exponential phase were treated with colchicine (Colcemid^R) for 90 minutes, so as to obtain a significant number of cells in metaphase and to recover them for the preparation of the chromosome suspension. As the positive standard, cyclophosphamide was used (1-5-10-12.5-25 μg/ml).\nThe toxicity of the tested compounds was evaluated by means of the assay of the efficiency of plating, treating the cells for four hours, then seeding them at a concentration of 200 cells/5 ml of fresh culture medium.\nOn the ground of the results obtained by means of this test, dosages were selected for the treatment in the test of induction of chromosomal aberrations, so as not to exceed, with the highest dosage, 50% toxicity levels.\nThe chromosomal aberrations were recorded describing the type of structural damage. The numeric aberrations and gaps were discarded. Metaphases showing a good chromosomal opening, a good staining and an acceptable chromosome number (20±2) were selected. For statistical evaluations of the results, the quadratic Chi test was used."}, "[2]": {"test_system": "copper \"scavenging\" of superoxide anion produced by the hypoxanthine/xanthine oxidase system", "experiment": "Copper \"scavenging\" effect (superoxide anion from hypoxanthine/xanthine oxidase system, cytochrome C)", "format": "biochemical", "description": "The study involves the production of superoxide anion by means of the hypoxanthine/xanthine oxidase system and the target is the reduction in cytochrome C iron content. […] Copper chelants inhibit such a \"scavenging\" effect."}, "cathepsin G": {"test_system": "cathepsin G", "settings": "from man; Raimondi 1982, Zembower 1992; cited from earlier work"}, "elastase": {"test_system": "elastase", "settings": "from man; Raimondi 1982, Zembower 1992; cited from earlier work"}, "[3]": {"test_system": "superoxide anion from NADPH-dependent biological systems", "settings": "Mian M. et al. 1987; cited from earlier work"}}}
{"molecule": "O=C(O)c1cc(O)c2c(c1)C(=O)c1cccc(O)c1C2=O", "note": "[Rhein, rhein]", "values": [{"measurement": "induction of chromosomal aberrations (in words)", "setting": "[1]; doses of 100 and 200 μg/ml", "value": "positive"}, {"measurement": "Aberrations complex (C)", "setting": "[1]; rhein 25 μg/ml", "value": 1}, {"measurement": "Aberrations simple (S)", "setting": "[1]; rhein 25 μg/ml", "value": 1}, {"measurement": "Aberrations S + C", "setting": "[1]; rhein 25 μg/ml, N.S.", "value": 2}, {"measurement": "Aberrations complex (C)", "setting": "[1]; rhein 50 μg/ml", "value": 3}, {"measurement": "Aberrations simple (S)", "setting": "[1]; rhein 50 μg/ml", "value": 1}, {"measurement": "Aberrations S + C", "setting": "[1]; rhein 50 μg/ml, N.S.", "value": 4}, {"measurement": "Aberrations complex (C)", "setting": "[1]; rhein 100 μg/ml", "value": 6}, {"measurement": "Aberrations simple (S)", "setting": "[1]; rhein 100 μg/ml", "value": 3}, {"measurement": "Aberrations S + C", "setting": "[1]; rhein 100 μg/ml, P < 0.05", "value": 9}, {"measurement": "Aberrations complex (C)", "setting": "[1]; rhein 200 μg/ml", "value": 5}, {"measurement": "Aberrations simple (S)", "setting": "[1]; rhein 200 μg/ml", "value": 3}, {"measurement": "Aberrations S + C", "setting": "[1]; rhein 200 μg/ml, P < 0.05", "value": 8}, {"measurement": "inhibition of copper \"scavenging\" effect (in words)", "setting": "[2]", "value": "inhibits said effect"}, {"measurement": "% Reduction (effect on copper \"scavenging\" action)", "setting": "[2]; hypoxanthine/xanthine oxidase, cytochrome c", "value": 45, "unit": "%"}, {"measurement": "inhibition of cathepsin G activity", "setting": "cathepsin G", "value": "inhibits"}, {"measurement": "inhibition of elastase activity", "setting": "elastase", "value": "inhibits"}, {"measurement": "inhibition of formation and release of the superoxide anion", "setting": "[3]", "value": "inhibits the formation and release of the superoxide anion"}]}
